Test results from patent US4407806A, “Fungicidal, herbicidal and plant growth regulating pyridyl-containing ethers” (Chevron Research Company, priority 1981, dated 1983).

How the values were obtained:
Assay type in all cases: in vivo
[1] = test system: grape downy mildew organism Plasmopara viticola; assay: Grape Downy Mildew control (detached grape leaves); conditions: vs untreated check, read-out: Fungicidal Activity Control %, Grape D.M.
[2] = test system: Tomato Late Blight organism Phytophthora infestans; assay: whole plant or invertebrate; conditions: 168 h, read-out: Fungicidal Activity Control %, Tomato L.B.
[3] = test system: celery late blight organism Septoria apii; assay: whole plant or invertebrate; conditions: 336 h, read-out: Fungicidal Activity Control %, Celery L.B.
[4] = test system: Bean Powdery Mildew organism Erisiphe polygoni; assay: Bean Powdery Mildew control; conditions: 240 h, 10 days, vs untreated check, read-out: Fungicidal Activity Control %, Bean P.M.
Description: The compounds of the invention were tested for the control of the Bean Powdery Mildew organism […] polygoni. Seedling bean plants were sprayed with a 250 ppm solution of the test compound in acetone, water and a nonionic emulsifier. The sprayed plants were then inoculated 1 day later with organism. […] The percent disease control provided by a given test compound was based on the percent disease reduction relative to the untreated check plants.

[5] = test system: Crabgrass (Digitaria sanguinalis); assay: Pre-emergent herbicidal test; conditions: 504 h, pre-emergence, 33 micrograms/cm^2, 3 weeks, 0-to-100 scale, read-out: Herbicidal Activity Pre-Emergence % Control, Crab Grass
Description: (§1) An acetone solution of the test compound was prepared by mixing 750 mg of the compound, 220 mg of a nonionic surfactant and 25 ml of acetone. This solution was added to approximately 125 ml of water containing 156 mg of surfactant.
(§2) Seeds of the test vegetation were planted in a pot of […] and the test solution was sprayed uniformly onto the soil surface at a dose of 33 micrograms/cm^2. The pot was watered and placed in a greenhouse. […] At the end of this period, the herbicidal effectiveness of the compound was rated based on the physiological observations. A 0-to-100 scale was used, 0 representing no phytotoxicity, 100 representing complete kill.

[6] = test system: Lambsquarter (Chenopodium album); assay: Pre-emergent herbicidal test; conditions: 504 h, pre-emergence, 33 micrograms/cm^2, 3 weeks, 0-to-100 scale, read-out: Herbicidal Activity Pre-Emergence % Control, L'Qtr.
Description: as §1, §2

[7] = test system: Mustard (Brassica arvensis); assay: Pre-emergent herbicidal test; conditions: 504 h, pre-emergence, 33 micrograms/cm^2, 3 weeks, 0-to-100 scale
Description: as §1, §2

[8] = test system: Pigweed (Amaranthus retraflexus); assay: Pre-emergent herbicidal test; conditions: 504 h, pre-emergence, 33 micrograms/cm^2, 3 weeks, 0-to-100 scale
Description: as §1, §2

Soybean [9] = assay: Pre-emergent herbicidal test; conditions: Glycine max, 504 h; pre-emergence; 33 micrograms/cm^2; 3 weeks; 0-to-100 scale; read-out: Herbicidal Activity Pre-Emergence % Control, Soybean
Description: as §1, §2

[10] = test system: Watergrass (Echinochloa crusgalli); assay: Pre-emergent herbicidal test; conditions: Echinochloa crus-galli, 504 h; pre-emergence; 33 micrograms/cm^2; 3 weeks; 0-to-100 scale; read-out: Herbicidal Activity Pre-Emergence % Control, Water Grass
Description: as §1, §2

Wild Oats (Avena fatura) [11] = assay: Pre-emergent herbicidal test; conditions: 504 h, pre-emergence, 33 micrograms/cm^2, 3 weeks, 0-to-100 scale
Description: as §1, §2

[12] = test system: Crabgrass (Digitaria sanguinalis); assay: Post-emergent herbicidal test; conditions: 504 h, post-emergence, 33 micrograms/cm^2, 3 weeks, 0-to-100 scale, read-out: Herbicidal Activity Post-Emergence % Control, Crab Grass
[13] = test system: Lambsquarter (Chenopodium album); assay: Post-emergent herbicidal test; conditions: 504 h, post-emergence, 33 micrograms/cm^2, 3 weeks, 0-to-100 scale, read-out: Herbicidal Activity Post-Emergence % Control, L'Qtr.
[14] = test system: Mustard (Brassica arvensis); assay: Post-emergent herbicidal test; conditions: 504 h, post-emergence, 33 micrograms/cm^2, 3 weeks, 0-to-100 scale
[15] = test system: Pigweed (Amaranthus retraflexus); assay: Post-emergent herbicidal test; conditions: 504 h, post-emergence, 33 micrograms/cm^2, 3 weeks, 0-to-100 scale
Soybean [16] = assay: Post-emergent herbicidal test; conditions: Glycine max, 504 h, post-emergence, 33 micrograms/cm^2, 3 weeks, 0-to-100 scale, read-out: Herbicidal Activity Post-Emergence % Control, Soybean
[17] = test system: Watergrass (Echinochloa crusgalli); assay: Post-emergent herbicidal test; conditions: Echinochloa crus-galli, 504 h, post-emergence, 33 micrograms/cm^2, 3 weeks, 0-to-100 scale, read-out: Herbicidal Activity Post-Emergence % Control, Water Grass
Wild Oats (Avena fatura) [18] = assay: Post-emergent herbicidal test; conditions: 504 h, post-emergence, 33 micrograms/cm^2, 3 weeks, 0-to-100 scale
Idaho pinto bean plants = assay: Axillary Bud Growth Inhibition Of Pinto Bean Plants; conditions: 288 h; 625-ppm; twelve days after treatment; vs untreated check; read-out: Bud Inhib (percent inhibition of axillary bud growth)
Description: Compounds of this invention were tested to determine their plant-growth-retarding effects on axillary bud growth of pinto beans.
Idaho pinto bean plants (13-16 days old) having monofoliate leaves fully developed and first trifoliates beginning to unfold were used. All growth 5 mm above the monofoliate leaf node was removed with forceps 1 to 4 hours prior to treatment with the test compounds. Four plants were used for each test compound.
A 625-ppm solution of the test compound in a 2% aqueous acetone solution containing a small amount of a nonionic surfactant was sprayed onto the pinto bean plants until runoff. After drying, the treated plants were transferred to a greenhouse maintained at 20°-23° C. and watered at regular intervals. Twelve days after treatment, the bud growth at the axil of the monofoliate leaf was determined and expressed as percent inhibition of axillary bud growth as compared to untreated check plants.

Cotton plants = assay: Cotton Regrowth; conditions: Gossypium hirsutum, 13 to 18 days, 100% is total inhibition, read-out: Regrowth (percent inhibition of cotton regrowth)
Description: Compounds of this invention were tested to determine their plant-growth regulating effects on cotton leaf regrowth.
Cotton plants, 4 to 5 weeks old, containing 4 true leaves above the cotyledonary leaves are employed. Growth beyond the second true leaf was removed. Within 24 hours the plants are sprayed with a 2000 ppm solution of the test compound. After spraying, the plants are transferred to a greenhouse maintained at 85° F. (±5° F.) and incubated there for from 13 to 18 days. The plants during this period are sub-irrigated in 1/4" of water.
After this period, regrowth is determined as a percent inhibition of auxiliary bud regrowth--100% is total inhibition while 0% is no inhibition.

[19] = test system: tomato Early Blight organism, Alternaria solani conidia; assay: Tomato Early Blight control; conditions: 288 h, about 12 days in greenhouse, vs untreated check, read-out: Fungicidal Activity Control %, Tomato E.B.
Description: Compounds of the invention were tested for the control of the tomato Early Blight organism, Alternaria solani conidia. Tomato (variety Bonny Best) seedlings of 6 to 7 weeks old were used. The tomato plants were sprayed with a 250 ppm solution of the test compound in an acetone-and-water solution containing a small amount of a nonionic emulsifier. The sprayed plants were inoculated one day later with the organism, placed in the environmental chamber and incubated at […] and 100% relative humidity for 24 hours. Following the incubation, the plants were maintained in a greenhouse for about 12 days. Percent diseases control was based on the percent disease development on untreated check plants.

Structure (SMILES) | pest or weed control at 250 ppm [1] | pest or weed control at 250 ppm [2] | pest or weed control at 250 ppm [3] | pest or weed control at 250 ppm [4] | pest or weed control at 33 µg/cm2 [5] | pest or weed control at 33 µg/cm2 [6] | pest or weed control at 33 µg/cm2 [7] | pest or weed control at 33 µg/cm2 [8] | plant injury at 33 µg/cm2 (Soybean [9]) | pest or weed control at 33 µg/cm2 [10] | pest or weed control at 33 µg/cm2 (Wild Oats (Avena fatura) [11]) | pest or weed control at 5000 ppm, 33 µg/cm2 [12] | pest or weed control at 5000 ppm, 33 µg/cm2 [13] | pest or weed control at 5000 ppm, 33 µg/cm2 [14] | pest or weed control at 5000 ppm, 33 µg/cm2 [15] | plant injury at 5000 ppm, 33 µg/cm2 (Soybean [16]) | pest or weed control at 5000 ppm, 33 µg/cm2 [17] | pest or weed control at 5000 ppm, 33 µg/cm2 (Wild Oats (Avena fatura) [18]) | pest or weed control at 625 µg/mL (Idaho pinto bean plants) | inhibition at 2000 ppm (Cotton plants) | other results
Clc1ccc(COC(c2cccnc2)c2ccc(Cl)cc2Cl)c(Cl)c1 (stereo not shown) [Compound 1, 3-pyridyl-2,4-dichlorophenylcarbinol 2,4-dichlorobenzylether] | 0% | 4% | 88% | 100% | 0% | 0% | 0% | 0% | 0% | 0% | 0% | 0% | 20% | 30% | 30% | 20% | 0% | 0% | 85% | 55% | –
OC(c1cccnc1)c1ccc(Cl)cc1Cl (stereo not shown) [Compound 2, 3-pyridyl-2,4-dichlorophenylcarbinol] | 25% | 0% | 31% | 100% | 0% | 0% | 0% | 0% | 0% | 0% | 0% | 0% | 0% | 0% | 0% | 0% | 0% | 0% | 0% | 0% | –
C=CCOC(c1cccnc1)c1ccc(Cl)cc1Cl (stereo not shown) [Compound 3, 3-pyridyl-2,4-dichlorophenylcarbinol allylether] | 15% | 0% | 48% | 100% | 90% | 98% | 45% | 85% | 0% | 73% | 0% | 0% | 60% | 25% | 50% | 33% | 0% | 0% | 25% | 0% | pest or weed control at 250 ppm [19]: 4%
C=C(Cl)COC(c1cccnc1)c1ccc(Cl)cc1Cl (stereo not shown) [Compound 4, 3-pyridyl-2,4-dichlorophenylcarbinol 2-chloroallylether] | 27% | 0% | 83% | 100% | 70% | 73% | 30% | 35% | 0% | 83% | 33% | 0% | 55% | 58% | 45% | 28% | 0% | 0% | 30% | 0% | pest or weed control at 250 ppm [19]: 73%
FC(F)(F)c1cccc(COC(c2cccnc2)c2ccc(Cl)cc2Cl)c1 (stereo not shown) [Compound 5, 3-pyridyl-2,4-dichlorophenylcarbinol 3-trifluoromethylbenzylether] | 12% | 0% | 91% | 100% | 70% | 25% | 25% | 45% | 30% | 55% | 15% | 0% | 63% | 40% | 55% | 30% | 0% | 0% | 70% | 65% | pest or weed control at 250 ppm [19]: 71%
c1ccc(-c2ccc(COC(c3ccccc3)c3cccnc3)cc2)cc1 (stereo not shown) [Compound 11, 3-pyridylphenylcarbinol 4-phenylbenzylether] | 13% | 0% | 47% | 100% | – | – | – | – | – | – | – | – | – | – | – | – | – | – | 0% | – | pest or weed control at 250 ppm [19]: 5%
